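Test compounds were applied to cells in 96-well plates for 48 hours at 5 doses. TGI marks complete inhibition of growth.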
What was measured:
Experiment in all cases: growth of human tumour cells (NCI), 48 h
[1] = test system: 786-0 renal
[2] = test system: A498 renal
[3] = test system: A549 NSCLC
[4] = test system: ACHN renal
[5] = test system: BT-549 breast
[6] = test system: CAKI-1 renal
[7] = test system: CCRF-CEM leukemia
[8] = test system: COLO 205 colon
[9] = test system: DU-145 prostate
[10] = test system: EKVX NSCLC
[11] = test system: HCC-2998 colon
[12] = test system: HCT-116 colon
[13] = test system: HCT-15 colon
[14] = test system: HL-60(TB) leukemia
[15] = test system: HOP-62 NSCLC
[16] = test system: HOP-92 NSCLC
[17] = test system: HS 578T breast
[18] = test system: HT29 colon
[19] = test system: IGROV1 ovarian
[20] = test system: K-562 leukemia
[21] = test system: KM12 colon
[22] = test system: LOX IMVI melanoma
[23] = test system: M14 melanoma
[24] = test system: MALME-3M melanoma
[25] = test system: MCF7 breast
[26] = test system: MDA-MB-231 breast
[27] = test system: MDA-MB-435
[28] = test system: MDA-N
[29] = test system: MOLT-4 leukemia
[30] = test system: NCI-H226 lung
[31] = test system: NCI-H23 lung
[32] = test system: NCI-H460 lung
[33] = test system: NCI-H522 lung
[34] = test system: NCI/ADR-RES ovarian
[35] = test system: OVCAR-3 ovarian
[36] = test system: OVCAR-4 ovarian
[37] = test system: OVCAR-5 ovarian
[38] = test system: OVCAR-8 ovarian
[39] = test system: PC-3 prostate
[40] = test system: RPMI-8226 leukemia
[41] = test system: RXF 393 renal
[42] = test system: SF-268 CNS
[43] = test system: SF-295 CNS
[44] = test system: SF-539 CNS
[45] = test system: SK-MEL-2 melanoma
[46] = test system: SK-MEL-28 melanoma
[47] = test system: SK-MEL-5 melanoma
[48] = test system: SK-OV-3 ovarian
[49] = test system: SN12C renal
[50] = test system: SNB-19 CNS
[51] = test system: SNB-75 CNS
[52] = test system: SR leukemia
[53] = test system: SW-620 colon
[54] = test system: T-47D breast
[55] = test system: TK-10 renal
[56] = test system: U251 CNS
[57] = test system: UACC-257 melanoma
[58] = test system: UACC-62 melanoma
[59] = test system: UO-31 renal

In the case of `O=Cc1ccc2c(c1)CC1(C2)Cc2ccc3c(c2C1)CCC3` (centres undefined), the TGI [1] was 28.3 µM, the TGI [2] was over 61 µM and the TGI [3] was over 100 µM. For the same molecule, the TGI [4] was over 100 µM, the TGI [5] was 18.6 µM and the TGI [6] was 46.8 µM. It also gave a TGI [7] of 21.1 µM, a TGI [8] of 43.7 µM and a TGI [9] of over 69 µM. The TGI [10] was over 59.2 µM, the TGI [11] was over 60.3 µM and the TGI [12] was 19.1 µM. For the same molecule, the TGI [13] was 34.4 µM, the TGI [14] was over 26.9 µM and the TGI [15] was 27.7 µM. The TGI [16] was over 48.3 µM, the TGI [17] was 21.5 µM and the TGI [18] was 36.8 µM. The TGI [19] was 41.3 µM, the TGI [20] was 25.6 µM and the TGI [21] was 33.1 µM. The TGI [22] was 15.9 µM, the TGI [23] was 21.3 µM and the TGI [24] was 21.8 µM. It also gave a TGI [25] of 22.8 µM, a TGI [26] of 14.2 µM and a TGI [27] of 7.4 µM. For the same molecule, the TGI [28] was 4.85 µM, the TGI [29] was 31.9 µM and the TGI [30] was 37.8 µM. For the same molecule, the TGI [31] was 33.6 µM, the TGI [32] was 38.7 µM and the TGI [33] was over 83.6 µM. The TGI [34] was 27.8 µM, the TGI [35] was 19.5 µM and the TGI [36] was 16.9 µM. It also gave a TGI [37] of over 69.2 µM, a TGI [38] of 29.8 µM and a TGI [39] of 18.2 µM. The TGI [40] was 27.9 µM, the TGI [41] was 28.5 µM and the TGI [42] was 41.9 µM. For the same molecule, the TGI [43] was 19.5 µM, the TGI [44] was 26.1 µM and the TGI [45] was 14 µM. For the same molecule, the TGI [46] was 29.5 µM, the TGI [47] was 15.9 µM and the TGI [48] was 45.1 µM. For the same molecule, the TGI [49] was 23.7 µM, the TGI [50] was 21 µM and the TGI [51] was 28.9 µM. For the same molecule, the TGI [52] was 18.3 µM, the TGI [53] was 15.2 µM and the TGI [54] was over 85.3 µM. For the same molecule, the TGI [55] was 40.5 µM, the TGI [56] was 22.7 µM and the TGI [57] was 33 µM. For the same molecule, the TGI [58] was 18.8 µM and the TGI [59] was 25 µM.

Source: PubChem BioAssay (NCI)
